pIC50: −log10 of the molar value.
Legend:
human Aurora A = human Aurora A (Homo sapiens (Human), UniProt O14965); test: Measurement of Aurora A inhibitory activity (IMAP fluorescence polarization kinase assay); type: biochemical; settings: ATP 5 μM, 25° C., 50 minutes
Protocol: (§1) The inhibitory activities of a test compound against Aurora A and Aurora B were measured according to the following method.
Complementary DNA of human Aurora A was fused with a histidine tag at the amino terminal, inserted into an expression vector and highly expressed in Escherichia coli BL21-CodonPlus (DE3)-RIL strain. After Escherichia coli was recovered and lysed, human Aurora A protein fused with a histidine tag was allowed to bind to a nickel chelate column and eluted by imidazole from the column. An active fraction was desalted by a desalting column to obtain purified enzyme.
In measuring inhibitory activity of the compound, first, the test compound was serially diluted by dimethylsulfoxide (DMSO). […] To the mixture, IMAP (registered trade mark) Progressive Binding Reagent diluted 500× with IMAP (registered trade mark) Progressive Binding Buffer A (manufactured by Molecular Devices) was added to terminate the kinase reaction. […] Based on the obtained fluorescence polarization degree, the amount of phosphorylation reaction was obtained.

human Aurora B = human Aurora B (Homo sapiens (Human), UniProt Q96GD4); test: Measurement of Aurora B kinase activity; type: biochemical; settings: ATP 40 μM, 60 minutes
Sequence of human Aurora B (Q96GD4 whole entry): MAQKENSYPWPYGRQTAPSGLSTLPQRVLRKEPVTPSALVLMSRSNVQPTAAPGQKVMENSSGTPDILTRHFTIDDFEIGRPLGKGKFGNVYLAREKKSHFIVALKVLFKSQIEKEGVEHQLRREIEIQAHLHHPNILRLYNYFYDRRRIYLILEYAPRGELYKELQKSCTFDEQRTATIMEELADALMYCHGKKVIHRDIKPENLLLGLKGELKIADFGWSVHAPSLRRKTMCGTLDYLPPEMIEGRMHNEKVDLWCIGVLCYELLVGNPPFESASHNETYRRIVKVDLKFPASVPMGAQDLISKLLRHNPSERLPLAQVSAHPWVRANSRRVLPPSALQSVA
Sequence of human Aurora B (Q9NQS7 803-916 partner): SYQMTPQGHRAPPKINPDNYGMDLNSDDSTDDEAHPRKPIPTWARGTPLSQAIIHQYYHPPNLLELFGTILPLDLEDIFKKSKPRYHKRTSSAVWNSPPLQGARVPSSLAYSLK
Protocol: as §1
The concentration of the compound at which 50% of the phosphorylation reaction was suppressed was defined as IC50 value (nM).

[1] = Evaluation of oral absorption property; type: in vivo, BALE/cA mice; settings: oral administration in 0.5% HPMC, plasma 0.5-6 hours, LCMS
Protocol: A test compound was suspended or dissolved in 0.5% HPMC and orally administered to BALE/cA mice. At the time points of 0.5, 1, 2, 4 and 6 hours after oral administration, blood was sampled from the back of the eye to obtain blood plasma. The concentration of the compound in the obtained blood plasma was measured by LCMS and evaluated for oral absorption property.

[2] = tested on: human-derived uterus cancer cell strain HeLa-luc; settings: Group 1: paclitaxel 10 mg/kg iv day 1 alone, 5 rats
Text: Cells (1×10^7) of human-derived uterus cancer cell strain HeLa-luc (manufactured by PerkinElmer Co., Ltd.) having a luciferase gene introduced therein were subcutaneously grafted to the right abdomens of nude rats. At the time the volume of a tumor developed from grafted cells reached about 200 mm^3, the rats were divided into groups each consisting of 5 rats according to stratified randomization such that each group had almost the same tumor volume. […] To Group 2 and 3, paclitaxel was administered and, on the next day, Compound 1 (30 mg/kg) was orally administered twice per day for one day or 4 days (sequential administration, see FIG. 1 (A), Sequential treatment). To the rats of Group 4 and 5, paclitaxel was administered and, on the same day, Compound 1 (30 mg/kg) was orally administered twice per day for 2 days or 4 days (concurrent administration, see FIG. 1 (B), Concurrent treatment). Compound 1 was suspended or dissolved in 0.5% (w/v) hydroxypropyl methyl cellulose (HPMC). Paclitaxel was dissolved in Cremophor EL and anhydrous ethanol, diluted with physiological saline so as to obtain a predetermined concentration and put in use.
The presence or absence of a therapeutic effect was determined by measuring the major axis and minor axis of a tumor with time and obtaining a tumor volume (TV), relative tumor volume (RTV) and T/C (%) value (average relative tumor volume ratio of the treatment group to the control group) on day 10 after initiation of administration according to the following expressions. Tumor volume (TV)={(major axis)×(minor axis)^2}/2 Relative tumor volume (RTVn) on measurement day (n)=TVn/TV1 T/C(%)={(average RTVn of treatment group)/(average RTVn of control group)}×100
TV1 represents tumor volume at the administration initiation time
Furthermore, an individual in which a tumor disappeared was specified as CR (complete remission/complete response) and the number of cases was obtained.

Sequence of human Aurora A (O14965 whole entry): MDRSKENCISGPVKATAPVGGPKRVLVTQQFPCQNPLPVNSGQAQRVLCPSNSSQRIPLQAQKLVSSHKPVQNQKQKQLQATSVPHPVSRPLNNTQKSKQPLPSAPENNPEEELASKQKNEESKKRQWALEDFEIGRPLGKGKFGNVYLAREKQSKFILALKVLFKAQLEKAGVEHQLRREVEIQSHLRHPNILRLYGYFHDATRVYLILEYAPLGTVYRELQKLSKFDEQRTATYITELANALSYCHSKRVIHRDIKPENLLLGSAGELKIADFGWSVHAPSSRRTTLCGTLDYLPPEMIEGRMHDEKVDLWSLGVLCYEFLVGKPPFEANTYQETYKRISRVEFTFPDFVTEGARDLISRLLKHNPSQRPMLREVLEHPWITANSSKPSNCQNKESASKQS

Row | SMILES | pIC50 (human Aurora A) | pIC50 (human Aurora B) | oral absorption property (concentration in blood plasma) [1] | number of CR cases [2]
1 | Cc1cc(Nc2nc(CC3(C(=O)O)CCN(C(=O)c4cccc(Cl)c4F)CC3)ccc2Cl)n[nH]1 [Production Example 12, 1-(3-chloro-2-fluorobenzoyl)-4-((5-chloro-6-(5-methyl-1H-pyrazol-3-ylamino)pyridin-2-yl)methyl)piperidine-4-carboxylic acid] | 9.40 | 6.59 | satisfactory oral absorption property | 
2 | CNC(=O)C1(Cc2ccc(F)c(Nc3cc(C)[nH]n3)n2)CCN(C(=O)c2cccc(Cl)c2F)CC1 [Production Example 14, 1-(3-chloro-2-fluorobenzoyl)-4-((5-fluoro-6-(5-methyl-1H-pyrazol-3-ylamino)pyridin-2-yl)methyl)-N-methylpiperidine-4-carboxyamide] | 9.05 | 6.34 |  | 
3 | Cc1cc(Nc2nc(CC3(C(=O)NC4CC4)CCN(C(=O)c4cccc(Cl)c4F)CC3)ccc2F)n[nH]1 [Production Example 17, 1-(3-chloro-2-fluorobenzoyl)-N-cyclopropy1-4-((5-fluoro-6-(5-methyl-1H-pyrazol-3-ylamino)pyridin-2-yl)methyl)piperidine-4-carboxyamide] | 9.05 | 6.05 |  | 
4 | Cc1cc(Nc2nc(CC3(c4noc(C)n4)CCN(C(=O)c4cccc(Cl)c4F)CC3)ccc2F)n[nH]1 [Production Example 22, (3-chloro-2-fluorophenyl)(4-((5-fluoro-6-(5-methyl-1H-pyrazol-3-ylamino)pyridin-2-yl)methyl)-4-(5-methyl-1,2,4-oxadiazol-3-yl)piperidine-1-yl)methanone] | 9.15 | 6.42 | satisfactory oral absorption property | 
5 | Cc1cc(Nc2nc(CC3(c4nnc(C)o4)CCN(C(=O)c4cccc(Cl)c4F)CC3)ccc2F)n[nH]1 [Production Example 28, (3-chloro-2-fluorophenyl)(4-((5-fluoro-6-(5-methyl-1H-pyrazol-3-ylamino)pyridin-2-yl)methyl)-4-(5-methyl-1,3,4-oxadiazol-2-yl)piperidine-1-yl)methanone] | 9.15 | 6.35 |  | 
6 | CC(=O)O[C@H]1C(=O)[C@@]2(C)[C@H]([C@H](OC(=O)c3ccccc3)[C@]3(O)C[C@H](OC(=O)[C@H](O)[C@@H](NC(=O)c4ccccc4)c4ccccc4)C(C)=C1C3(C)C)[C@]1(OC(C)=O)CO[C@@H]1C[C@@H]2O [paclitaxel, reference compound] |  |  |  | no CR cases

More lines, main results first:

Row | pIC50 (human Aurora A) | pIC50 (human Aurora B) | oral absorption property (concentration in blood plasma) [1] | SMILES | number of CR cases [2]
7 | 9.30 | 6.47 |  | Cc1cc(Nc2nc(CC3(C(=O)O)CCN(C(=O)c4cccc(C(F)(F)F)c4F)CC3)ccc2F)n[nH]1 [Production Example 2, 1-(2-fluoro-3-trifluoromethylbenzoyl)-4-((5-fluoro-6-(5-methyl-1H-pyrazol-3-ylamino)pyridin-2-yl)methyl)piperidine-4-carboxylic acid] | 
8 | 9.22 | 6.03 | satisfactory oral absorption property | COc1ccc(CC2(C(=O)O)CCN(C(=O)c3cccc(Cl)c3F)CC2)nc1Nc1cc(C)[nH]n1 [Production Example 11, 1-(3-chloro-2-fluorobenzoyl)-4-((5-methoxy-6-(5-methyl-1H-pyrazol-3-ylamino)pyridin-2-yl)methyl)piperidine-4-carboxylic acid] | 
9 | 9.40 | 6.74 | satisfactory oral absorption property | Cc1cc(Nc2nc(CC3(C(=O)O)CCN(C(=O)c4cccc(Cl)c4F)CC3)ccc2F)n[nH]1 [Production Example 13, 1-(3-chloro-2-fluorobenzoyl)-4-((5-fluoro-6-(5-methyl-1H-pyrazol-3-ylamino)pyridin-2-yl)methyl)piperidine-4-carboxylic acid] | 
10 | 9.00 | 6.06 |  | Cc1cc(Nc2nc(CC3(C(=O)N4CCC4)CCN(C(=O)c4cccc(Cl)c4F)CC3)ccc2F)n[nH]1 [Production Example 19, azetidin-1-yl(1-(3-chloro-2-fluorobenzoyl)-4-((5-fluoro-6-(5-methyl-1H-pyrazol-3-ylamino)pyridin-2-yl)methyl)piperidine-4-yl)methanone] | 
11 | 9.30 | 6.72 |  | Cc1cc(Nc2nc(CC3(c4ncon4)CCN(C(=O)c4cccc(Cl)c4F)CC3)ccc2F)n[nH]1 [Production Example 24, (3-chloro-2-fluorophenyl)(4-((5-fluoro-6-(5-methyl-1H-pyrazol-3-ylamino)pyridin-2-yl)methyl)-4-(1,2,4-oxadiazol-3-yl)piperidine-1-yl)methanone] | 
12 | 9.10 | 6.41 |  | Cc1noc(C2(Cc3ccc(F)c(Nc4cc(C)[nH]n4)n3)CCN(C(=O)c3cccc(Cl)c3F)CC2)n1 [Production Example 29, (3-chloro-2-fluorophenyl)(4-((5-fluoro-6-(5-methyl-1H-pyrazol-3-ylamino)pyridin-2-yl)methyl)-4-(3-methyl-1,2,4-oxadiazol-5-yl)piperidine-1-yl)methanone] | 
